This assay deals with BDF1 mice, colon carcinoma 38 sc, T/C %. Briefly: NCI In Vivo Anticancer Drug Screen. Data for tumor model Colon Carcinoma 38 (subcutaneous) in B6D2F1 (BDF1) mice. A digest of the protocol:
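Compound antitumor activity was assessed in mice carrying transplantable tumors. Survival or tumor size was recorded, and each value is the treated-group measurement divided by that of the vehicle-treated control group.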

Where [1] appears, read: endpoint: median tumor weight (est.), dose: 12.5 mg/kg/injection, schedule: Q07DX002 (ip), vehicle: Klucel (hydroxypropylcellulose) (HPC), higher = larger tumour.
[2] abbreviates: endpoint: median tumor weight (est.), dose: 12.5 mg/kg/injection, schedule: Q07DX003 (ip), vehicle: Klucel (hydroxypropylcellulose) (HPC), higher = larger tumour.
Where [3] appears, read: endpoint: median tumor weight (est.), dose: 25.0 mg/kg/injection, schedule: Q07DX002 (ip), vehicle: Klucel (hydroxypropylcellulose) (HPC), higher = larger tumour.
The mark [4] stands for this setting: endpoint: median tumor weight (est.), dose: 25.0 mg/kg/injection, schedule: Q07DX003 (ip), vehicle: Klucel (hydroxypropylcellulose) (HPC), higher = larger tumour.
Setting [5] is: endpoint: median tumor weight (est.), dose: 50.0 mg/kg/injection, schedule: Q07DX002 (ip), vehicle: Klucel (hydroxypropylcellulose) (HPC), higher = larger tumour.
Where [6] appears, read: endpoint: median tumor weight (est.), dose: 100.0 mg/kg/injection, schedule: Q07DX002 (ip), vehicle: Klucel (hydroxypropylcellulose) (HPC), higher = larger tumour.
The mark [7] stands for this setting: endpoint: median tumor weight (est.), dose: 200.0 mg/kg/injection, schedule: Q07DX002 (ip), vehicle: Klucel (hydroxypropylcellulose) (HPC), higher = larger tumour.
[8] abbreviates: endpoint: median tumor weight (est.), dose: 400.0 mg/kg/injection, schedule: Q07DX002 (ip), vehicle: Klucel (hydroxypropylcellulose) (HPC), higher = larger tumour.
Where [9] appears, read: endpoint: median tumor weight (est.), dose: 12.5 mg/kg/injection, schedule: Q07DX002 (ip), vehicle: saline with Tween-80, higher = larger tumour.
Where [10] appears, read: endpoint: median tumor weight (est.), dose: 25.0 mg/kg/injection, schedule: Q07DX002 (ip), vehicle: saline with Tween-80, higher = larger tumour.
[11] abbreviates: endpoint: median tumor weight (est.), dose: 50.0 mg/kg/injection, schedule: Q07DX002 (ip), vehicle: saline with Tween-80, higher = larger tumour.
Where [12] appears, read: endpoint: median tumor weight (est.), dose: 200.0 mg/kg/injection, schedule: Q07DX002 (ip), vehicle: saline with Tween-80, higher = larger tumour.
Setting [13] is: endpoint: median tumor weight (est.), dose: 400.0 mg/kg/injection, schedule: Q07DX002 (ip), vehicle: saline with Tween-80, higher = larger tumour.
The mark [14] stands for this setting: endpoint: median tumor weight (est.), dose: 200.0 mg/kg/injection, schedule: Q07DX003 (ip), vehicle: Klucel (hydroxypropylcellulose) (HPC), higher = larger tumour.
Where [15] appears, read: endpoint: median tumor weight (est.), dose: 100.0 mg/kg/injection, schedule: Q07DX002 (ip), vehicle: saline, higher = larger tumour.
The mark [16] stands for this setting: endpoint: median tumor weight (est.), dose: 200.0 mg/kg/injection, schedule: Q07DX002 (ip), vehicle: saline, higher = larger tumour.
[17] abbreviates: endpoint: median tumor weight (est.), dose: 400.0 mg/kg/injection, schedule: Q07DX002 (ip), vehicle: saline, higher = larger tumour.

Several values for one entry are separate records, joined by “and”; a condition that tells them apart may be missing. Identical values can stand only once. Inconclusive results are not listed.

As to `C[C@H](N)C(=O)N[C@@H]1[C@H]2C(=C(O)C[C@@H](O)[C@@H]2O)C(=O)O[C@]1(C)C(Cl)Cl`, the T/C was 97 % of control (endpoint: median tumor weight (est.), dose: 0.37 mg/kg/injection, schedule: Q07DX002 (ip), vehicle: Klucel (hydroxypropylcellulose) (HPC), higher = larger tumour); 75 % of control (endpoint: median tumor weight (est.), dose: 0.38 mg/kg/injection, schedule: Q07DX002 (ip), vehicle: Klucel (hydroxypropylcellulose) (HPC), higher = larger tumour); 53 % of control and 59 % of control (endpoint: median tumor weight (est.), dose: 3.0 mg/kg/injection, schedule: Q07DX002 (ip), vehicle: Klucel (hydroxypropylcellulose) (HPC), higher = larger tumour); 30 % of control and 40 % of control (endpoint: median tumor weight (est.), dose: 6.0 mg/kg/injection, schedule: Q07DX002 (ip), vehicle: Klucel (hydroxypropylcellulose) (HPC), higher = larger tumour).

Take `CC(=O)Oc1ccccc1C(=O)O`: the T/C runs as follows: (endpoint: median tumor weight (est.), dose: 32.0 mg/kg/injection, schedule: Q07DX002 (ip), vehicle: saline with Tween-80, higher = larger tumour) 102 % of control; (endpoint: median tumor weight (est.), dose: 64.0 mg/kg/injection, schedule: Q07DX002 (ip), vehicle: saline with Tween-80, higher = larger tumour) 53 % of control; (endpoint: median tumor weight (est.), dose: 72.0 mg/kg/injection, schedule: Q07DX002 (ip), vehicle: saline with Tween-80, higher = larger tumour) 122 % of control; (endpoint: median tumor weight (est.), dose: 128.0 mg/kg/injection, schedule: Q07DX002 (ip), vehicle: saline with Tween-80, higher = larger tumour) 76 % of control; (endpoint: median tumor weight (est.), dose: 144.0 mg/kg/injection, schedule: Q07DX002 (ip), vehicle: saline with Tween-80, higher = larger tumour) 118 % of control; (endpoint: median tumor weight (est.), dose: 256.0 mg/kg/injection, schedule: Q07DX002 (ip), vehicle: saline with Tween-80, higher = larger tumour) 97 % of control. Besides, the T/C was 90 % of control (endpoint: median tumor weight (est.), dose: 518.0 mg/kg/injection, schedule: Q07DX002 (ip), vehicle: saline with Tween-80, higher = larger tumour) and 118 % of control (endpoint: median tumor weight (est.), dose: 1152.0 mg/kg/injection, schedule: Q07DX002 (ip), vehicle: saline with Tween-80, higher = larger tumour).

As for `O=S(CCCl)CCCl`, the T/C (endpoint: median tumor weight (est.), dose: 0.78 mg/kg/injection, schedule: Q07DX003 (ip), vehicle: Klucel (hydroxypropylcellulose) (HPC), higher = larger tumour) is 57 % of control; the T/C (endpoint: median tumor weight (est.), dose: 1.56 mg/kg/injection, schedule: Q07DX003 (ip), vehicle: Klucel (hydroxypropylcellulose) (HPC), higher = larger tumour) is 84 % of control; the T/C (endpoint: median tumor weight (est.), dose: 3.12 mg/kg/injection, schedule: Q07DX003 (ip), vehicle: Klucel (hydroxypropylcellulose) (HPC), higher = larger tumour) was 83 % of control; the T/C (endpoint: median tumor weight (est.), dose: 6.25 mg/kg/injection, schedule: Q07DX003 (ip), vehicle: Klucel (hydroxypropylcellulose) (HPC), higher = larger tumour) was 87 % of control; the T/C under setting [1] was 150 % of control; the T/C under setting [2] was 84 % of control. In addition, the T/C by setting is: under setting [3], 96 % of control; under setting [4], 95 % of control; under setting [5], 153 % of control; under setting [6], 110 % of control.

For `Nc1ncnc2c1ncn2C1OC(COS(N)(=O)=O)C(O)C1O` (stereo unspecified), the T/C by setting is: (endpoint: median survival time, dose: 0.25 mg/kg/injection, schedule: Q02DX004 (sc), vehicle: saline, higher = longer survival) 100 % of control; (endpoint: median survival time, dose: 0.5 mg/kg/injection, schedule: Q02DX004 (sc), vehicle: saline, higher = longer survival) 100 % of control.

In the case of `Ic1ncnc2c1ncn2C1CCCO1` (stereo unspecified), the T/C is, setting by setting: under setting [1], 68 % of control and 70 % of control; under setting [3], 52 % of control and 68 % of control; under setting [6], 56 % of control and 80 % of control; under setting [7], 81 % of control; under setting [8], 55 % of control.

Consider `ClCCN(CCCl)c1ccc(/C=C/c2ccccc2)cc1`, for which the T/C reads like this: under setting [5], 71 % of control; under setting [6], 116 % of control; under setting [7], 72 % of control; under setting [8], 71 % of control; (endpoint: median tumor weight (est.), dose: 800.0 mg/kg/injection, schedule: Q07DX002 (ip), vehicle: Klucel (hydroxypropylcellulose) (HPC), higher = larger tumour) 79 % of control.

On to `CC(=O)Nc1ccc(O)c(O)c1`, for which the T/C is, setting by setting: under setting [9], 112 % of control; under setting [10], 86 % of control; under setting [11], 100 % of control and 102 % of control; (endpoint: median tumor weight (est.), dose: 100.0 mg/kg/injection, schedule: Q07DX002 (ip), vehicle: saline with Tween-80, higher = larger tumour) 66 % of control and 83 % of control; under setting [12], 90 % of control and 95 % of control; under setting [13], 74 % of control and 75 % of control and 86 % of control. Under “endpoint: median tumor weight (est.), dose: 800.0 mg/kg/injection, schedule: Q07DX002 (ip), vehicle: saline with Tween-80, higher = larger tumour”, the T/C is 72 % of control.

As to `O=C1NC(=O)C2C3C=CC(C12)C1C2C(=O)NC(=O)C2C31` (stereo unspecified), the T/C under setting [13] was 29 % of control and 50 % of control.

For `CCOC(=O)C1C2OC(=O)C(C(=O)C2CN(CCCl)CCCl)C1C1CC=C(CC2=CCC(C3C4C(=O)OC(C(CN(CCCl)CCCl)C4=O)C3C(=O)OCC)CC2)CC1` (stereo unspecified), the T/C is 95 % of control under setting [2]; 117 % of control under setting [4]; 116 % of control (endpoint: median tumor weight (est.), dose: 50.0 mg/kg/injection, schedule: Q07DX003 (ip), vehicle: Klucel (hydroxypropylcellulose) (HPC), higher = larger tumour); 110 % of control (endpoint: median tumor weight (est.), dose: 100.0 mg/kg/injection, schedule: Q07DX003 (ip), vehicle: Klucel (hydroxypropylcellulose) (HPC), higher = larger tumour); 67 % of control under setting [14].

On to `CCCCCCCCCCCCCCC/C([O-])=N/[N+](C)(C)CC(C)O` (stereo unspecified), for which the T/C is, setting by setting: (endpoint: median tumor weight (est.), dose: 25.0 mg/kg/injection, schedule: Q01DX001 (ip), vehicle: saline, higher = larger tumour) 164 % of control; (endpoint: median tumor weight (est.), dose: 200.0 mg/kg/injection, schedule: Q01DX001 (ip), vehicle: saline, higher = larger tumour) 120 % of control; (endpoint: median tumor weight (est.), dose: 400.0 mg/kg/injection, schedule: Q01DX001 (ip), vehicle: saline, higher = larger tumour) 85 % of control.

Consider `CCOC(=O)c1ccc(NN=NCCF)cc1`, for which the T/C was 86 % of control (endpoint: median tumor weight (est.), dose: 3.12 mg/kg/injection, schedule: Q07DX002 (ip), vehicle: saline with Tween-80, higher = larger tumour); 94 % of control (endpoint: median tumor weight (est.), dose: 6.25 mg/kg/injection, schedule: Q07DX002 (ip), vehicle: saline with Tween-80, higher = larger tumour); 70 % of control under setting [9]; 89 % of control under setting [10].

Turning to `CN(C)CC(Cl)CCl` (stereo unspecified), the T/C reads like this: (endpoint: median tumor weight (est.), dose: 12.5 mg/kg/injection, schedule: Q07DX002 (ip), vehicle: saline, higher = larger tumour) 118 % of control; (endpoint: median tumor weight (est.), dose: 25.0 mg/kg/injection, schedule: Q07DX002 (ip), vehicle: saline, higher = larger tumour) 105 % of control; under setting [15], 115 % of control; under setting [16], 118 % of control; under setting [17], 88 % of control.

Regarding `CCCCCC[C@@H](O)C/C=C\CCCCCCCC(=O)OCCO`, the T/C reads like this: (endpoint: median tumor weight (est.), dose: 50.0 mg/kg/injection, schedule: Q07DX002 (ip), vehicle: saline, higher = larger tumour) 113 % of control; under setting [15], 72 % of control; under setting [16], 113 % of control; under setting [17], 117 % of control; (endpoint: median tumor weight (est.), dose: 800.0 mg/kg/injection, schedule: Q07DX002 (ip), vehicle: saline, higher = larger tumour) 74 % of control; (endpoint: median tumor weight (est.), dose: 1600.0 mg/kg/injection, schedule: Q07DX002 (ip), vehicle: saline, higher = larger tumour) 85 % of control.

As for `CCCCNC(C)C1(O)Cc2c(O)c3c(c(O)c2C(OC2CC(N)C(O)C(C)O2)C1)C(=O)c1c(OC)cccc1C3=O` (stereo unspecified), the T/C reads like this: (endpoint: median tumor weight (est.), dose: 40.0 mg/kg/injection, schedule: Q07DX002 (ip), vehicle: saline, higher = larger tumour) 95 % of control; (endpoint: median tumor weight (est.), dose: 80.0 mg/kg/injection, schedule: Q07DX002 (ip), vehicle: saline, higher = larger tumour) 101 % of control; (endpoint: median tumor weight (est.), dose: 160.0 mg/kg/injection, schedule: Q07DX002 (ip), vehicle: saline, higher = larger tumour) 116 % of control; (endpoint: median tumor weight (est.), dose: 320.0 mg/kg/injection, schedule: Q07DX002 (ip), vehicle: saline, higher = larger tumour) 47 % of control.

Turning to `CCCCC(C)(C(=O)OCC)C(=O)OCC`, the T/C under setting [4] is 68 % of control and 69 % of control; the T/C under setting [14] is 63 % of control and 85 % of control; the T/C (endpoint: median tumor weight (est.), dose: 400.0 mg/kg/injection, schedule: Q07DX003 (ip), vehicle: Klucel (hydroxypropylcellulose) (HPC), higher = larger tumour) is 91 % of control and 102 % of control.

As for `Nc1c(C(=O)O)[nH]c(=O)[nH]c1=O`, the T/C under setting [9] is 104 % of control, the T/C under setting [10] was 100 % of control, the T/C under setting [11] was 80 % of control and the T/C under setting [12] was 123 % of control.

Values taken from PubChem BioAssay AID212 (DTP/NCI, 2004).
